Source: patent US20120165319A1, “INHIBITORS OF INTERLEUKIN-1 BETA CONVERTING ENZYME” (VERTEX PHARMACEUTICALS INCORPORATED, priority 1995, published 2012)
Like-named read-outs stand apart in the source and are kept apart here.

Tests used:
IL-1β, human whole blood = assay: Whole blood assay for IL-1β production; assay type: cell-based; settings: Table 17, read-out: Whole human blood IC50
How it was run: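 IL-1β was quantified by ELISA in plasma diluted 1:200. The plasma came from EDTA-anticoagulated human whole blood incubated at 30 °C for 16-18 h with LPS (final 5.0 ng/ml) plus a saline serial dilution of compound. Controls were no-LPS, no-inhibitor and highest-vehicle.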

[1] = system: IL-1β production, LPS-challenged mice; assay: In vivo acute assay for efficacy as anti-inflammatory agent: LPS-induced IL-1β production in mice; set-up: species or system mouse; settings: LPS challenged mice, compound PO, 50 mg/kg; for inhibition at 50 mg/kg: Mus musculus, po, read-out: percent inhibition of IL-1β production
Description: In Vivo Acute Assay for Efficacy as Anti-Inflammatory Agent
LPS-Induced IL-1β Production.
Efficacy of 214e and 217e was evaluated in CD1 mice (n=6 per condition) challenged with LPS (20 mg/kg IP). […] Blood was collected seven hours after LPS challenge. Serum IL-1β levels were measure by ELISA. […] Similar results were obtained in a second experiment. […] However, a clear dose response was not apparent.
Compounds 214e and 217e (50 mg/kg) were also administered by oral gavage to assess absorption.
The efficacy of analogs of 214e were also evaluated in LPS challenged mice after IP administration (FIG. 9) and PO administration (FIG. 10).
[…] The protocol is described in Example 7.

[2] = administered 0 h relative to time of LPS challenge
[3] = administered −2 h relative to time of LPS challenge
[4] = 0 h, administered 0 h relative to time of LPS challenge
[5] = 2 h, administered −2 h relative to time of LPS challenge

| Structure (SMILES) | IC50 (IL-1β, human whole blood) [µM] | percent inhibition of IL-1β production [1, 2] [%] | percent inhibition of IL-1β production [1, 3] | IC50 (IL-1β, human whole blood; Homo sapiens) [µM] | inhibition at 50 mg/kg [1, 4] [%] | inhibition at 50 mg/kg [1, 5] [%] |
| --- | --- | --- | --- | --- | --- | --- |
| COc1ccc(C(=O)N[C@H]2CCC(=O)N3CCC[C@@H](C(=O)N[C@H]4CC(=O)OC4OCc4ccccc4)N3C2=O)cc1 (mixture of isomers) [Compound 213i, [1S,9S(2RS,3S)]9-[(4-Methoxybenzoyl)amino]-6,10-dioxo-1,2,3,4,7,8,9,10-octahydro-N-(2-Benzyloxy-5-oxotetrahydrofuran-3-yl)-6H-pyridazino[1,2-a][1,2]diazepine-1-carboxamide] | 1.1 | 62 | (−11) % | – | – | – |
| O=C1C[C@H](NC(=O)[C@@H]2CCCN3C(=O)CC[C@H](NC(=O)c4ccc(O)cc4)C(=O)N23)C(OCc2ccccc2)O1 (mixture of isomers) [Compound 213p, [1S,9S (2RS,3S)]N-(2-Benzyloxy-5-oxotetrahydrofuran-3-yl)-6,10-dioxo-9-(4-hydroxybenzoyl)amino-1,2,3,4,7,8,9,10-octahydro-6H-pyridazino[1,2-a][1,2]diazepine-1-carboxamide] | < 0.3 | 29 | 21% | – | – | – |
| O=C1C[C@H](NC(=O)[C@@H]2CCCN3C(=O)CC[C@H](NC(=O)c4cc5ccccc5[nH]4)C(=O)N23)C(OCc2ccccc2)O1 (mixture of isomers) [Compound 213q, [1S,9S(2RS,3S)]N-(2-Benzyloxy-5-oxotetrahydrofuran-3-yl)-6,10-dioxo-9-(indol-2-oylamino)-1,2,3,4,7,8,9,10-octahydro-6H-pyridazino[1,2-a][1,2]diazepine-1-carboxamide] | < 0.3 | 91 | 17% | – | – | – |
| Cc1ccccc1C(=O)N[C@H]1CCC(=O)N2CCC[C@@H](C(=O)N[C@H]3CC(=O)OC3OCc3ccccc3)N2C1=O (mixture of isomers) [Compound 213r, [1S,9S(2RS,3S)]N-(2-Benzyloxy-5-oxotetrahydrofuran-3-yl)-6,10-dioxo-1,2,3,4,7,8,9,10-octahydro-9-(2-toluoylamino)-6H-pyridazino[1,2-a][1,2]diazepine-1-carboxamide] | < 0.3 | 37 | 59% | – | – | – |
| O=C1C[C@H](NC(=O)[C@@H]2CCCN3C(=O)CC[C@H](NC(=O)c4nccc5ccccc45)C(=O)N23)C(OCc2ccccc2)O1 (mixture of isomers) [Compound 213y, [1S,9S(2RS,3S)]N-(2-Benzyloxy-5-oxotetrahydrofuran-3-yl)-6,10-dioxo-9-(isoquinolin-1-oylamino)-1,2,3,4,7,8,9,10-octahydro-6-H-pyridazino[1,2-a][1,2]diazepine-1-carboxamide] | 0.93 | 50 | 29% | – | – | – |
| CC(=O)OC1OC(=O)CC1NC(=O)[C@@H]1CCCN2C(=O)CC[C@H](NC(=O)c3ccccc3)C(=O)N12 (mixture of isomers) [Compound 2100h, [1S,9S(2RS,3RS)]9-Benzoylamino-6,10-dioxo-1,2,3,4,7,8,9,10-octahydro-N-(2-acetoxy-5-oxotetrahydrofuran-3-yl)-6H-pyridazino[1,2-a][1,2]diazepine-1-carboxamide] | – | – | – | 2 | 32 | 34 |
| O=C1C[C@H](NC(=O)[C@@H]2CCCN3C(=O)CC[C@H](NC(=O)c4cc(Cl)c(O)c(Cl)c4)C(=O)N23)C(OCc2ccccc2)O1 (stereo partly drawn) [Compound 213k, [1S,9S(2RS,3S)]9-[(3,5-Dichloro-4-hydroxybenzoyl)amino]-6,10-dioxo-1,2,3,4,7,8,9,10-octahydro-N-(2-Benzyloxy-5-oxotetrahydrofuran-3-yl)-6H-pyridazino[1,2-a][1,2]diazepine-1-carboxamide] | – | – | – | 2 | 68 | 0 |
